From the Kinase Knowledgebase extract (Sharma et al. 2016)
“And” between values parts separate entries of the source, which are not always exact repeats. Equal values may be shown once.

Tests used:
EGFR [1] = biological target: EGFR (UniProt P00533)
EGFR [2] = biological target: EGFR (UniProt P00533); details: various cell lines

EGFR, sequence (P00533 whole entry, looked up): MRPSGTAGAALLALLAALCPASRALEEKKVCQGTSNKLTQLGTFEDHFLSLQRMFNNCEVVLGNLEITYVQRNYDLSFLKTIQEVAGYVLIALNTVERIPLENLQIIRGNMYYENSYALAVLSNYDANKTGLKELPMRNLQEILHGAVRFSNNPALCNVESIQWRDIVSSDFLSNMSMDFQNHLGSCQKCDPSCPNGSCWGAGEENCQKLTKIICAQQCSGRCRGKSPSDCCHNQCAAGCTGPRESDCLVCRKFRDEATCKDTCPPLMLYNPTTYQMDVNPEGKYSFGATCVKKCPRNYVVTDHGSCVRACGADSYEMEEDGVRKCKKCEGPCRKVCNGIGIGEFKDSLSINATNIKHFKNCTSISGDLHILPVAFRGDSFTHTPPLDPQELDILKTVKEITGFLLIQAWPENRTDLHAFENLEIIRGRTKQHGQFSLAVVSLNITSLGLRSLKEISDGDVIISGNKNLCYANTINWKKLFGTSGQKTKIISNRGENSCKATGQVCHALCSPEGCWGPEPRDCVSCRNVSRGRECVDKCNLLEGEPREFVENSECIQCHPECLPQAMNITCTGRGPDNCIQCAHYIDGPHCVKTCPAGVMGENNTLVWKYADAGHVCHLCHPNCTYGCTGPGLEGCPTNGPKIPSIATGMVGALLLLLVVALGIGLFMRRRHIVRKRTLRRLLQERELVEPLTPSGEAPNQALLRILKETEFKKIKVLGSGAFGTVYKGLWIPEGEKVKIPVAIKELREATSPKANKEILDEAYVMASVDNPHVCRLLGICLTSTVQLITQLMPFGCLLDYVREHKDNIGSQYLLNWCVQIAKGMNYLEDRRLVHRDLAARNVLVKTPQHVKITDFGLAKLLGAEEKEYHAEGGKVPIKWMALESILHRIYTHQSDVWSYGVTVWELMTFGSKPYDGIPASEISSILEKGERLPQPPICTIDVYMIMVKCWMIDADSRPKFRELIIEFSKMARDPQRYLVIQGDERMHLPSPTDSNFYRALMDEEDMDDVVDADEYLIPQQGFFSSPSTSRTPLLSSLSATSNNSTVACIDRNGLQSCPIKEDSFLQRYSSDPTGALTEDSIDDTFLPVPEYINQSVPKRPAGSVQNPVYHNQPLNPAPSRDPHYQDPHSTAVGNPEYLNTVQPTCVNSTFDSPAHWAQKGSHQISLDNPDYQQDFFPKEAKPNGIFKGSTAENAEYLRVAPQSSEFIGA

Structure (SMILES) | IC50 (EGFR [1]) | IC50 (EGFR [2]) [µM]
C=CC(=O)Nc1cccc2c1sc1c(Nc3cccc(Br)c3)ncnc12 | 0.0014 µM | 0.024
Cc1cccc(N(C)c2ncnc3[nH]ncc23)c1 | > 50 µM | 
CNC(=O)c1c([Se][Se]c2c(C(=O)NC)c3ccccc3n2C)n(C)c2ccccc12 | 6.1 µM | 
Cc1cccc2c(CCC(=O)O)c(SSc3[nH]c4c(C)cccc4c3CCC(=O)O)[nH]c12 | 1.5 µM | 
Nc1ccc(-c2n[nH]c3ncnc(Nc4cccc(Cl)c4)c23)cc1 | 0.002 µM | 
Cn1c(SSc2c(C(=O)Nc3ccccc3)c3ccccc3n2C)c(C(=O)Nc2ccccc2)c2ccccc21 | 20 µM | 
COc1cc2ncnc(N[C@@H](C)c3cccc(Br)c3)c2cc1OC | 3.76 µM | 
C/C(O)=C(/C#N)C(=O)Nc1ccc(C(F)(F)F)cc1 |  | 35
Nc1nc(N)c2c(Nc3cccc(Cl)c3)n[nH]c2n1 | 0.22 µM | 
COc1cccc(CNc2n[nH]c3ncnc(Nc4cccc(Cl)c4)c23)c1 | 0.008 µM | 
COc1cc2ncnc(N(C)c3cccc(C)c3)c2cc1OC | 12 µM | 
COc1cc2ncnc(N[C@H](C)c3cccc(Br)c3)c2cc1OC | 0.0016 µM | 
C=CC(=O)Nc1ccc2sc3c(Nc4cccc(Br)c4)ncnc3c2c1 | 0.023 µM | 
COc1cc2ncnc(Oc3cccc(Br)c3)c2cc1OC |  | 0.07
COc1cc2nccc(Oc3cccc(Br)c3)c2cc1OC |  | 2.5
O=CN/C=C/c1cc(O)ccc1O | 0.367 µM | 
Brc1cccc(Nc2ncnc3ccccc23)c1 | 0.02 µM and 0.023 µM | 
Brc1cccc(Nc2ncnc3cnc(NCCc4c[nH]cn4)nc23)c1 |  | 0.0051
CC(=O)Oc1cccc2c1c(C(=O)Nc1ccccc1)c(SSc1c(C(=O)Nc3ccccc3)c3c(OC(C)=O)cccc3n1C)n2C | 10 µM | 
Clc1cccc(Nc2ncnc3ccccc23)c1 | 0.04 µM and 0.027 µM | 
COC(=O)Cc1c(SSc2[nH]c3ccccc3c2CC(=O)OC)[nH]c2ccccc12 | 18 µM | 
COc1cc2ncnc(Nc3cncc4ccccc34)c2cc1OC | 0.006 µM | 
C=CC(=O)Nc1ccc2c(c1)sc1c(Nc3cccc(Br)c3)ncnc12 | 0.021 µM | 
COc1cc2cc(-c3ccccc3)c(Cl)nc2cc1OC |  | > 0.03
COc1cc2ncnc(NCc3cccc(Br)c3)c2cc1OC | 0.01 µM | 

Other lines, results leading:

IC50 (EGFR [1]) | IC50 (EGFR [2]) [µM] | Structure (SMILES)
> 1000 µM |  | O=C1NC(=O)c2cc(NC3CCCCC3)c(NC3CCCCC3)cc21
0.033 µM |  | Clc1cccc(Nc2ncnc3[nH]nc(Nc4cccc(Cl)c4)c23)c1
 | 0.0096 | Brc1cccc(Nc2ncnc3cc4[nH]cc(CN5CCOCC5)c4cc23)c1
0.02 µM |  | COc1cc2ncnc(Nc3ccc(F)c(Br)c3)c2cc1OCCCN1CCOCC1
0.00034 µM |  | Brc1cccc(Nc2ncnc3cc4cn[nH]c4cc23)c1
0.0074 µM | 0.038 | Brc1cccc(Nc2ncnc3cc(NCCCN4CCOCC4)ncc23)c1
0.0019 µM | 0.0081 | CN(C)CCCCNc1cc2ncnc(Nc3cccc(Br)c3)c2cn1
 | 0.0097 | CN(C)Cc1c[nH]c2cc3ncnc(Nc4cccc(Br)c4)c3cc12
0.00044 µM |  | Brc1cccc(Nc2ncnc3cc4[nH]ncc4cc23)c1
0.01 µM |  | COc1cc2ncnc(NC3CC3c3ccccc3)c2cc1OC (centres undefined)
0.00044 µM | 0.02 | Brc1cccc(Nc2ncnc3cc4[nH]ccc4cc23)c1
 | 0.03 | CNc1ncc2ncnc(Nc3cccc(Br)c3)c2n1
0.006 µM |  | Clc1cccc(Nc2ncnc3[nH]c4ccccc4c23)c1
 | 0.028 | CCN(CC)CC(O)CNc1cc2c(Nc3cccc(Br)c3)ncnc2cn1 (centres undefined)
 | 0.048 | CN(C)CCNc1cc2c(Nc3cccc(Br)c3)ncnc2cn1
 | 0.016 | Brc1cccc(Nc2ncnc3cc4c(ccn4CCN4CCOCC4)cc23)c1
9.1e-05 µM |  | CNc1cc2ncnc(Nc3cccc(Br)c3)c2cn1
 | 0.0079 | Brc1cccc(Nc2ncnc3cnc(NCCN4CCOCC4)cc23)c1
0.003 µM |  | COc1cc2c(NC3CC3c3ccccc3)ncnc2cc1OCCCN(C)C (centres undefined)
 | 0.013 | CNc1cc2c(Nc3cccc(Br)c3)ncnc2cn1
